Assay results: patent US10040839B2, “Insulin derivatives and the medical uses hereof” (Novo Nordisk A/S, priority 2014, dated 2018)

Tests used:
solubilised human IR-A [1] = target: T1, solubilised human IR-A (Homo sapiens, UniProt P06213); assay: Insulin receptor affinity on solubilised receptors, SPA competition binding, 0% HSA; settings: solubilised cloned human insulin receptor A isoform, % relative to human insulin
T1 construct: made in house; host or cells: baby hamster kidney (BHK) cells overexpressing the IR-A holoreceptor
T1 sequence (P06213 28-746 isoform P06213-2 limits assumed): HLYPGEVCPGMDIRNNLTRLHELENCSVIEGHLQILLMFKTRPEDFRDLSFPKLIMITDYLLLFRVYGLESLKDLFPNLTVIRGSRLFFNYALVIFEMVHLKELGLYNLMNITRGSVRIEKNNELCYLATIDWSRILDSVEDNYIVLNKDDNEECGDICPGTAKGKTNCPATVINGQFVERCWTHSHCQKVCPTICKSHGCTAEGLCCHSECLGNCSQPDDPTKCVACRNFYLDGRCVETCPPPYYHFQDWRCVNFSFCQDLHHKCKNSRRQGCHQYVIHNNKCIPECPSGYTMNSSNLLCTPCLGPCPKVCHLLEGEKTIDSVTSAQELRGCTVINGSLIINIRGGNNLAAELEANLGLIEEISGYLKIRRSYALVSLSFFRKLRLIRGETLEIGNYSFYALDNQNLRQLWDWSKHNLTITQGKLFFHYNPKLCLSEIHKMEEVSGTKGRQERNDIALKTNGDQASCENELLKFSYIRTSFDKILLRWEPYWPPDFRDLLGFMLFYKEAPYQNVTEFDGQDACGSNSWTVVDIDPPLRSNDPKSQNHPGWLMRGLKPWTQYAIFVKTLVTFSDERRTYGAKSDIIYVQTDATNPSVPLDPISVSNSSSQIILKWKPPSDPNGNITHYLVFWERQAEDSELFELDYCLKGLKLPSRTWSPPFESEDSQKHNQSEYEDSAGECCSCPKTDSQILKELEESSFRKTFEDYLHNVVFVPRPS
T1 sequence (P06213 763-1382 partner limits assumed): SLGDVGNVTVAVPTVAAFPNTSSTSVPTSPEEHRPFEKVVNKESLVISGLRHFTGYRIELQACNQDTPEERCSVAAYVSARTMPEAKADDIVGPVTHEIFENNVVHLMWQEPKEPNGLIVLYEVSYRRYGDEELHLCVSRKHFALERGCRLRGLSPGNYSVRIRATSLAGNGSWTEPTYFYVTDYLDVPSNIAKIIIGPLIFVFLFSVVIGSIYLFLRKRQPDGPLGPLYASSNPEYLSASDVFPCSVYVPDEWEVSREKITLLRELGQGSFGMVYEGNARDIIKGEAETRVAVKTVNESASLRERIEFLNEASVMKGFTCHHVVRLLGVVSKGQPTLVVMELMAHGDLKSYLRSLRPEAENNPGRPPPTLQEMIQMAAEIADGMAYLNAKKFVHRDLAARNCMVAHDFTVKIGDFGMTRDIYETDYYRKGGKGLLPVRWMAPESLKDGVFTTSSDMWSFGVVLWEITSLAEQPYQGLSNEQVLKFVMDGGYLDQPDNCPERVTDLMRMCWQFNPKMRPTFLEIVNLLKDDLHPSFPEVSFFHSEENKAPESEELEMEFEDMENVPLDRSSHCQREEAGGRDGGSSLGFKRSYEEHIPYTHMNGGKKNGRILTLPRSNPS

solubilised human IR-A [2] = target: T1, solubilised human IR-A; assay: Insulin receptor affinity on solubilised receptors, SPA competition binding, binding buffer with […] HSA; settings: solubilised cloned human insulin receptor A isoform, % relative to human insulin
[3] = target: T2, membrane-associated human IR-A (Homo sapiens, UniProt P06213); assay: Insulin receptor affinity on membrane-associated receptors, SPA competition binding
T2 construct: expressed in transfected cells; host or cells: BHK cells stably transfected with pZem219B vector (plasma membrane preparation)
T2 sequence (P06213 28-746 isoform P06213-2 limits assumed): as the sequence (P06213 28-746 isoform P06213-2 limits assumed) above
T2 sequence (P06213 763-1382 partner limits assumed): as the sequence (P06213 763-1382 partner limits assumed) above
Method: (§1) Membrane-associated human IR and IGF-1R are purified from BHK cells stably transfected with the pZem219B vector containing either the human IR-A, IR-B or IGF-IR insert. BHK cells are harvested and homogenized in ice-cold buffer (25 mM HEPES pH 7.4, 25 mM CaCl2 and 1 mM MgCl2, 250 mg/L bacitracin, 0.1 mM Pefablock). […] The pellets are re-suspended in a minimal volume of buffer and drawn through a needle (size 23) three times before storage at −80° C. until usage.
(§2) The relative binding affinity for either of the membrane-associated human IR-A, IR-B or IGF-1R is determined by competition binding in a SPA setup. IR assays are performed in duplicate in 96-well OptiPlates (Perkin-Elmer Life Sciences). […] Assays are terminated by centrifugation of the plate at 2000 rpm for 2 minutes and bound radioactivity quantified by counting on a TopCount NXT (Perkin-Elmer Life Sciences).
(§3) IGF-1R assays are conducted essentially as for the IR binding assays except that membrane-associated IGF-1R and 50 pM [^125 I-Tyr31]-human IGF-1 were employed.

[4] = target: T3, membrane-associated human IGF-1R (Homo sapiens, UniProt P08069); assay: IGF-1 receptor affinity on membrane-associated receptors, SPA competition binding; settings: membrane-associated cloned human IGF-1R, % relative to human insulin
T3 construct: expressed in transfected cells; host or cells: BHK cells stably transfected with pZem219B vector (plasma membrane preparation)
T3 sequence (P08069 31-736 limits assumed): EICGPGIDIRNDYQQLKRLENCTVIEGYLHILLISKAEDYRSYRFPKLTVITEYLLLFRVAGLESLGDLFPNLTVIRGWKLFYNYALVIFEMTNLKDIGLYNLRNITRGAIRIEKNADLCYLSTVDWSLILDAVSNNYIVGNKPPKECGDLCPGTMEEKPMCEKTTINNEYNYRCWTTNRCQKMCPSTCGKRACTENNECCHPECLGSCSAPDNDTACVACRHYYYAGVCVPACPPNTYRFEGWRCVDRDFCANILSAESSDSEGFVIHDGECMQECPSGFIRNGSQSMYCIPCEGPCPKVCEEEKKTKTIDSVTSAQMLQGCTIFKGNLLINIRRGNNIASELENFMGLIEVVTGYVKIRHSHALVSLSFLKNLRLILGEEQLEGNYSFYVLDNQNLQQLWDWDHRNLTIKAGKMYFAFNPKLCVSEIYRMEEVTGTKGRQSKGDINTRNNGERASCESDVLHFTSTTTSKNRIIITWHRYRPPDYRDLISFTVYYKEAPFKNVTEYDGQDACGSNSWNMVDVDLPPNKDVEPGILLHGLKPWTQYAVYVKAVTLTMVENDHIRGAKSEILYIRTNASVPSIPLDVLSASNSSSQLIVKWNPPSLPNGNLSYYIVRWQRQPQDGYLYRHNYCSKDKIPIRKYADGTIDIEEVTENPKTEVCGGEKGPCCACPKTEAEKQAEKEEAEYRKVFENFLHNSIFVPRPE
T3 sequence (P08069 741-1367 partner limits assumed): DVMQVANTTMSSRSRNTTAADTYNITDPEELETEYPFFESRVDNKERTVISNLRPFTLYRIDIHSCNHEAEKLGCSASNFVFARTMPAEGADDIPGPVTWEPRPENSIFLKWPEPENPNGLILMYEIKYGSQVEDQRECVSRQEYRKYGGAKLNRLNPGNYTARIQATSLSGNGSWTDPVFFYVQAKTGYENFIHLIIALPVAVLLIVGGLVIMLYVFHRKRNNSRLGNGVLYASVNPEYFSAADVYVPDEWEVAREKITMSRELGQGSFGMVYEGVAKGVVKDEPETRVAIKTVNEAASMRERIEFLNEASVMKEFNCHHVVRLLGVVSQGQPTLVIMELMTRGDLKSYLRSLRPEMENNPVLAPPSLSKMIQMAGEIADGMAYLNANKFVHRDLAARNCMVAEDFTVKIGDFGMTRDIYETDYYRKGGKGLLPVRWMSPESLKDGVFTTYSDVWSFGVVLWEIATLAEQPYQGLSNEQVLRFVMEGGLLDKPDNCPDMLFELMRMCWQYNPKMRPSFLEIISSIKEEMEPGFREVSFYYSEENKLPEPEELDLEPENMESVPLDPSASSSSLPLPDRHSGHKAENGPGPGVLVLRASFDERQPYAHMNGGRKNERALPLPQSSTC
Method: as §1, §2, §3

Relative IR-A affinity (@ 0% HSA) (solubilised human IR-A [1]): 241.7%
Relative IR-A affinity (@ […] HSA) (solubilised human IR-A [2]): 117.9%
Relative IR-A affinity (@ 0.1% HSA) ([3]; membrane-associated cloned human IR-A, 0.1% HSA, % relative to human insulin): 117.3%
IR IGF1 ratio ([3]; ratio of IR-A to IGF-1R affinities from membrane-associated receptors): 0.21
Relative IGF-1R affinity (@ 0.1% HSA) [4]: 546.4%
Substance: A22K(N(Eps)-Tetradecanedioyl-2×OEG), desB27, B29R, desB30 Human Insulin [Example 17]
